Assay results published in patent US20260216348A1, “IRAK DEGRADATION AGENT AND USE THEREOF” (Increland, priority 2023, published 2026).
pIC50: −log10 of the molar value.

Legend:
IRAK4 = molecular target: T1, IRAK4 (Homo sapiens, UniProt Q9NWZ3); test: IRAK4 protein degradation in THP1 cells (Western blot); format: cell-based; details: THP-1 cells, 24 h
T1 construct: Effect of the Compounds on IRAK4 Protein Degradation in THP1 Cells; endogenous in cells; host or cells: THP-1 cells
T1 sequence (Q9NWZ3 1-460): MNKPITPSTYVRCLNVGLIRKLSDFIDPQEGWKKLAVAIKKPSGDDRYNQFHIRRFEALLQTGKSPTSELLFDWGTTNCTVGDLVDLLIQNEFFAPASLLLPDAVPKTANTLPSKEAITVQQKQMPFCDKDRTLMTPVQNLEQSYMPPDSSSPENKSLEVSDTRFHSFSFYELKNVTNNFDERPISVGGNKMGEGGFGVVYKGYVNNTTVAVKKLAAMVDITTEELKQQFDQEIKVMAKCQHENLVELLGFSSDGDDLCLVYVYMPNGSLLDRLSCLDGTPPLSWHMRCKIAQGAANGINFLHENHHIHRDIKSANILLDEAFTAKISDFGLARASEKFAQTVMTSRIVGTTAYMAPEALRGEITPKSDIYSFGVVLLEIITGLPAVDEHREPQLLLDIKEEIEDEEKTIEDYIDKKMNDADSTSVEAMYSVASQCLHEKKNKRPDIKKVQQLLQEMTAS
Description: THP-1 cells were seeded into a 96-well cell culture plate, with 2×10^5 cells and 90 μL of culture medium per well. The cell culture plate was cultured in an incubator with 5% CO2 at 37° C. overnight. The compound was dissolved in DMSO to prepare a stock solution, which was serially diluted into a series of working solutions with a 5-fold concentration gradient using the culture medium and then added to the aforementioned 96-well plate at 10 μL per well. The cell culture plate was further incubated for 24 h in a 5% CO2 incubator at 37° C. After incubation, the 96-well plate was centrifuged and the supernatant was discarded, followed by adding 40 μL of cell lysis buffer containing […]/phosphatase inhibitors to each well for sufficient lysis on an ice bath. Protein quantification was performed using the BCA protein quantification kit, followed by the preparation of Western blot samples. […] After electrophoresis, protein transfer was performed using a PVDF membrane under ice bath conditions for 1 h. After the transfer was completed, the PVDF membrane was blocked with gentle shaking in 5% skim milk at room temperature for 1 h. After blocking, the PVDF membrane was incubated with the primary antibody overnight with gentle shaking at 4° C. The PVDF membrane was washed 3 times with TBST, then the secondary antibody was added and incubated for 1 h with gentle shaking at room temperature, followed by washing of the PVDF membrane with TBST for 3 times. After the washes were completed, the chemiluminescent substrate was added; the PVDF membrane was scanned using a Clinx imager, semi-quantitative analysis was performed with ImageJ software, and the DC50 was calculated using GraphPad Prism 8.0.

[1] = system: LPS/IL-1β-induced IL-6 secretion in human peripheral blood mononuclear cells (PBMCs); test: Inhibition of LPS/IL-1β-induced IL-6 secretion in human PBMCs (IL-6 ELISA); format: cell-based; details: PBMC, LPS 10 ng/mL + IL-1β 20 ng/mL, 24 h pre-incubation, 20 h stimulation
Description: This experiment was carried out in RPMI 1640 medium containing 10% FBS and 1% penicillin/streptomycin, with each of the compounds at an initial test concentration of 1 μM.
The compound was dissolved in DMSO to prepare a stock solution, which was serially diluted into some working solutions with a 5-fold concentration gradient using the culture medium and then added to a 96-well plate at 10 μL per well. PBMCs (Batch No.: P122101102C; Milecell Biotechnology Inc.) were counted and diluted to a cell concentration of about 1.3×10^6 cells/mL, and then added to the aforementioned compound-containing 96-well plate at 150 μL per well. The system was mixed well and incubated in a 5% CO2 incubator at 37° C. for 24 h. Then 5 μL of LPS (final concentration: 10 ng/mL) and 5 μL of IL-1β (final concentration: 20 ng/mL) were added to each well, respectively, and the culture was continued for 20 h in a 5% CO2 incubator at 37° C. After incubation, the 96-well plate was centrifuged at 2000 rpm for 4 min. The supernatant was collected and diluted 200-fold, then detected using an IL-6 ELISA kit. The OD450 values were read, and converted to IL-6 concentrations based on a standard curve. The dose-response curves were fitted using GraphPad 8.0 to calculate the IC50 values.

SMILES	DC50 (IRAK4) [nM]	pIC50 [1]
CN(C)c1cc2nn([C@H]3CC[C@H](CN4CC[C@@H](n5cc6cc(C7CCC(=O)NC7=O)ccc6n5)[C@@H](F)C4)CC3)cc2cc1NC(=O)c1cnn2cccnc12 (stereo partly shown) [TM-156]	0.32	8.93
CN(C)c1cc2nn([C@H]3CC[C@H](CN4CC[C@H](n5cc6cc(F)c(C7CCC(=O)NC7=O)cc6n5)[C@@H](F)C4)CC3)cc2cc1C(=O)Nc1cnn2cccnc12 (stereo partly shown) [TM-158]	1.41	7.84
CN(C)c1cc2nn([C@H]3CC[C@H](CN4CC[C@H](n5cc6ccc(N7CCC(=O)NC7=O)cc6n5)[C@@H](F)C4)CC3)cc2cc1NC(=O)c1cnn2cccnc12 [TM-31]	4.06	8.48
CN(C)c1cc2nn([C@H]3CC[C@H](CN4CCC(N5Cc6ccc(N7CCC(=O)NC7=O)cc6C5=O)CC4)CC3)cc2cc1NC(=O)c1cnn2cccnc12 [TM-143]	135	7.92
CN(C)c1cc2nn([C@H]3CC[C@H](CN4CCCN(c5nc6cc(N7CCC(=O)NC7=O)ccc6s5)CC4)CC3)cc2cc1NC(=O)c1cnn2cccnc12 [TM-59]	9.64	7.96
C[C@H]1CN(C[C@H]2CC[C@H](n3cc4cc(NC(=O)c5cnn6cccnc56)c(N(C)C)cc4n3)CC2)CC[C@@H]1n1cc2ccc(N3CCC(=O)NC3=O)cc2n1 [TM-27]	4.27	8.83
CN(C)c1cc2nn([C@H]3CC[C@H](CN4CC[C@H](n5cc6ccc(N7CCC(=O)NC7=O)cc6n5)[C@H](F)C4)CC3)cc2cc1NC(=O)c1cnn2cccnc12 [TM-32]	1.4	8.92
CN(C)c1cc2nn(C3CCN(C[C@H]4CC[C@H](n5cc6ccc(C7CCC(=O)NC7=O)cc6n5)CC4)CC3)cc2cc1NC(=O)c1cnn2cccnc12 (stereo partly shown) [TM-5]	4.62	9.59
CN(C)c1cc2nn([C@H]3CC[C@H](CN4CCC(n5cc6cc(F)c(N7CCC(=O)NC7=O)cc6n5)CC4)CC3)cc2cc1NC(=O)c1cnn2cccnc12 [TM-10]	4	8.87
CO[C@H]1CN(C[C@H]2CC[C@H](n3cc4cc(NC(=O)c5cnn6cccnc56)c(N(C)C)cc4n3)CC2)CC[C@H]1n1cc2ccc(N3CCC(=O)NC3=O)cc2n1 [TM-33]	2.86	9.06
C[C@H]1CN(C[C@H]2CC[C@H](n3cc4cc(NC(=O)c5cnn6cccnc56)c(N(C)C)cc4n3)CC2)CC[C@@H]1n1cc2ccc(C3CCC(=O)NC3=O)cc2n1 (stereo partly shown) [TM-157]	1.12	8.84
CN(C)c1cc2nn([C@H]3CC[C@H](CN4CC[C@H](n5cc6cc(C7CCC(=O)NC7=O)ccc6n5)[C@H](F)C4)CC3)cc2cc1NC(=O)c1cnn2cccnc12 (stereo partly shown) [TM-155]	0.31	9.00
CN(C)c1cc2nn([C@H]3CC[C@H](CN4CC[C@H](n5cc6cc(C7CCC(=O)NC7=O)ccc6n5)[C@@H](F)C4)CC3)cc2cc1NC(=O)c1cnn2cccnc12 (stereo partly shown) [TM-168]	1.78	–
CN(C)c1cc2nn([C@H]3CC[C@H](CN4CCC5(CC4)C[C@@H](n4cc6cc(F)c(C7CCC(=O)NC7=O)cc6n4)CO5)CC3)cc2cc1NC(=O)c1cnn2cccnc12 (stereo partly shown) [TM-140]	13.9	–
CO[C@H]1CN(C[C@H]2CC[C@H](n3cc4cc(NC(=O)c5cnn6cccnc56)c(N(C)C)cc4n3)CC2)CC[C@@H]1n1cc2ccc(C3CCC(=O)NC3=O)cc2n1 (stereo partly shown) [TM-166]	1.58	9.05
CN(C)c1cc2nn([C@H]3CC[C@H](CN4CC[C@H](n5cc6cc(N7CCC(=O)NC7=O)ccc6n5)[C@@H](F)C4)CC3)cc2cc1NC(=O)c1cnn2cccnc12 [TM-17]	1.19	8.47
CN(C)c1cc2nn([C@H]3CC[C@H](CN4CC[C@@H](n5cc6cc(F)c(C7CCC(=O)NC7=O)cc6n5)[C@@H](F)C4)CC3)cc2cc1NC(=O)c1cnn2cccnc12 (stereo partly shown) [TM-139]	< 1	8.36

SMILES	DC50 (IRAK4) [nM]	pIC50 [1]
CN(C)c1cc2nn([C@H]3CC[C@H](CN4CC[C@@H](n5cc6cc(N7CCC(=O)NC7=O)c(F)cc6n5)[C@H](F)C4)CC3)cc2cc1NC(=O)c1cnn2cccnc12 [TM-41]	< 1	8.41
CN(C)c1cc2nn([C@H]3CC[C@H](CN4CC[C@H](F)[C@@H](n5cc6ccc(N7CCC(=O)NC7=O)cc6n5)C4)CC3)cc2cc1NC(=O)c1cnn2cccnc12 [TM-213]	1.74	–
CN(C)c1cc2nn([C@H]3CC[C@H](CN4CC[C@@H](n5cc6cc(N7CCC(=O)NC7=O)ccc6n5)[C@H](F)C4)CC3)cc2cc1NC(=O)c1cnn2cccnc12 [TM-16]	0.41	8.34
O=C1CCN(c2ccc3cn(C4CCN(C[C@H]5CC[C@H](n6cc7cc(NC(=O)c8cnn9cccnc89)c(N8CCOCC8)cc7n6)CC5)CC4)nc3c2)C(=O)N1 [TM-43]	4.31	8.05
CN(C)c1cc2nn([C@H]3CC[C@H](CN4CC[C@@H](n5cc6cc(N7CCC(=O)NC7=O)ccc6n5)[C@@H](F)C4)CC3)cc2cc1NC(=O)c1cnn2cccnc12 [TM-15]	1.41	8.40
CN(C)c1cc2nn([C@H]3CC[C@H](CN4CC[C@H](n5cc6ccc(C7CCC(=O)NC7=O)cc6n5)[C@H](F)C4)CC3)cc2cc1NC(=O)c1cnn2cccnc12 (stereo partly shown) [TM-153]	0.79	8.17
CN(C)c1cc2nn([C@H]3CC[C@H](CN4CC[C@@H](n5cc6ccc(N7CCC(=O)NC7=O)cc6n5)[C@@H](F)C4)CC3)cc2cc1NC(=O)c1cnn2cccnc12 [TM-29]	1.13	9.06
CN(C)c1cc2nn([C@H]3CC[C@H](CN4CC[C@@H](n5cc6ccc(C7CCC(=O)NC7=O)cc6n5)[C@@H](F)C4)CC3)cc2cc1NC(=O)c1cnn2cccnc12 (stereo partly shown) [TM-154]	1.27	8.84
CN(C)c1cc2nn(C3CCC(CN4CCC[C@H](n5cc6cc(N7CCC(=O)NC7=O)ccc6n5)C4)CC3)cc2cc1NC(=O)c1cnn2cccnc12 (stereo partly shown) [TM-204]	1.69	–
CN(C)c1cc2nn([C@H]3CC[C@H](CN4CC5(CCN(c6nc7ccc(C8CCC(=O)NC8=O)cn7n6)CC5)C4)CC3)cc2cc1NC(=O)c1cnn2cccnc12 (stereo partly shown) [TM-251]	18.1	8.66
CN(C)c1cc2nn([C@H]3CC[C@H](CN4C[C@@H](F)[C@H](n5cc6ccc(N7CCC(=O)NC7=O)cc6n5)C4)CC3)cc2cc1NC(=O)c1cnn2cccnc12 [TM-200]	1.79	–
CN(C)c1cc2nn(C3CCN(C[C@H]4CC[C@H](n5cc6cc(N7CCC(=O)NC7=O)c(F)cc6n5)CC4)CC3)cc2cc1NC(=O)c1cnn2cccnc12 [TM-51]	23.3	8.50
CN(C)c1cc2nn([C@H]3CC[C@H](CN4CC[C@H](n5cc6ccc(C7CCC(=O)NC7=O)cc6n5)[C@@H](F)C4)CC3)cc2cc1NC(=O)c1cnn2cccnc12 (stereo partly shown) [TM-151]	1.66	8.15
CN(C)c1cc2nn([C@H]3CC[C@H](CN4CC[C@@H](n5cc6cc(N7CCC(=O)NC7=O)c(F)cc6n5)[C@@H](F)C4)CC3)cc2cc1NC(=O)c1cnn2cccnc12 [TM-42]	0.93	8.78
CN(C)c1cc2nn([C@H]3CC[C@H](CN4CC[C@@H](n5cc6ccc(N7CCC(=O)NC7=O)cc6n5)[C@H](F)C4)CC3)cc2cc1NC(=O)c1cnn2cccnc12 [TM-30]	1.33	8.98
CN(C)c1cc2nn([C@H]3CC[C@H](CN4CCC(c5nc6cc(C7CCC(=O)NC7=O)c(F)cc6o5)CC4)CC3)cc2cc1NC(=O)c1cnn2cccnc12 (stereo partly shown) [TM-147]	11	–
CN(C)c1cc2nn([C@H]3CC[C@H](CN4CC5(CC(n6cc7ccc(N8CCC(=O)NC8=O)cc7n6)C5)C4)CC3)cc2cc1NC(=O)c1cnn2cccnc12 [TM-215]	0.95	–
